Measured values published in EPA's ToxRefDB 2.

Assays:
rat [1] = conditions: Prenatal developmental toxicity study, other, Oral, Gavage/Intubation, dose end: 15 GD
dog = conditions: Chronic toxicity, beagle, Oral, Feed, dose end: 52 week, group: systemic
mouse [2] = conditions: Carcinogenicity, cd1, Oral, Feed, dose end: 24 month, group: systemic
rat [3] = conditions: Subchronic oral toxicity in rodents, sprague dawley, Feed, dose end: 90 day, group: systemic
rat [4] = conditions: Combined chronic toxicity/carcinogenicity, sprague dawley, Oral, Feed, dose end: 24 month, group: systemic
rat [5] = conditions: Subchronic oral toxicity in rodents, fischer, Gavage/Intubation, dose end: 14 week, group: systemic, systemic / in life observation / body weight / body weight + systemic / in life observation / body weight / body weight gain + systemic / …
mouse [6] = conditions: Subchronic oral toxicity in rodents, b6c3f1, Gavage/Intubation, dose end: 14 week, group: systemic
mouse [7] = conditions: Carcinogenicity; b6c3f1; Oral; Gavage/Intubation; dose end: 105 week; group: systemic; systemic / in life observation / body weight / body weight + systemic / pathology microscopic / liver / hematopoietic cell proliferation + …
rat [8] = conditions: Carcinogenicity; fischer; Oral; Gavage/Intubation; dose end: 105 week; group: systemic; systemic / in life observation / body weight / body weight + systemic / pathology gross / liver / discolored + systemic / pathology gross / …
rabbit [9] = conditions: Prenatal developmental toxicity study, new zealand white, Oral, Gavage/Intubation, dose end: 27 GD
rat [10] = conditions: Reproduction/developmental toxicity screening test, sprague dawley, Dermal, Topical, dose end: 1 generation
rabbit [11] = conditions: Subchronic dermal toxicity, new zealand white, Topical, dose end: 13 week, group: systemic, systemic / pathology gross / skin / scabbing + systemic / pathology microscopic / skin / inflammation + systemic / in life observation / …
[12] = group: developmental, developmental / developmental malformation / bone / unossified
[13] = group: maternal, systemic / in life observation / body weight / body weight + systemic / in life observation / body weight / body weight gain + systemic / …
[14] = systemic / pathology microscopic / prostate / hyperplasia
[15] = systemic / pathology microscopic / liver / cytomegaly
[16] = systemic / pathology microscopic / liver / cytomegaly + systemic / pathology microscopic / lung / adenoma + systemic / in life observation…
[17] = systemic / clinical chemistry / calcium / calcium + systemic / organ weight / heart / relative to body weight
[18] = systemic / in life observation / body weight / body weight + systemic / in life observation / body weight / body weight gain
[19] = systemic / in life observation / body weight / body weight gain + systemic / organ weight / liver / absolute + systemic / organ weight / …
[20] = systemic / organ weight / epididymis / nos + systemic / organ weight / testes / nos
[21] = group: developmental, systemic / in life observation / body weight / fetal weight
[22] = group: maternal, systemic / in life observation / body weight / body weight gain + systemic / in life observation / food consumption / food consumption + …
[23] = group: offspring, systemic / in life observation / body weight / offspring (pup) weight + systemic / in life observation / clinical signs / desquamation + …
[24] = group: parental, systemic / in life observation / body weight / body weight + systemic / in life observation / body weight / body weight gain + systemic / in…
[25] = group: parental, systemic / in life observation / clinical signs / desquamation + systemic / in life observation / clinical signs / erythema + systemic / …

Molecule `COc1nc(C)nc(NC(=O)NS(=O)(=O)c2ccccc2OCCCl)n1` [Triasulfuron] has an LEL (rat [1]; [12]) of 100 mg/kg/day, an LOAEL (rat [1]; [12]) of 900 mg/kg/day and an NEL (rat [1]; [12]) of under 100 mg/kg/day. The NOAEL (rat [1]; group: developmental, developmental / developmental malformation / bone / unossified + systemic / in life observation / body weight / fetal weight) was 300 mg/kg/day, the LOAEL (rat [1]; group: maternal, systemic / in life observation / body weight / body weight + systemic / in life observation / body weight / body weight gain) was 300 mg/kg/day and the LEL (rat [1]; group: maternal, systemic / in life observation / body weight / body weight + systemic / in life observation / body weight / body weight gain + systemic / in…) was 300 mg/kg/day. It also gave an NEL (rat [1]; [13]) of 100 mg/kg/day, an NOAEL (rat [1]; [13]) of 100 mg/kg/day and an LEL (dog; [14]) of 2.5 mg/kg/day. The LOAEL (dog; [14]) was 25 mg/kg/day, the NEL (dog; [14]) was under 2.5 mg/kg/day and the NOAEL (dog; systemic / pathology microscopic / prostate / hyperplasia + systemic / hematology / erythrocyte (rbc) count differential / erythrocyte (rbc…) was 2.5 mg/kg/day. For the same molecule, the LEL (mouse [2]; [15]) was 129 mg/kg/day, the LOAEL (mouse [2]; [15]) was 129 mg/kg/day and the NEL (mouse [2]; [16]) was 1.2 mg/kg/day. It also gave an NOAEL (mouse [2]; [16]) of 1.2 mg/kg/day, an LEL (rat [3]; [17]) of 10 mg/kg/day and an NEL (rat [3]; [17]) of under 10 mg/kg/day. The LOAEL (rat [3]; systemic / in life observation / body weight / body weight + systemic / in life observation / food consumption / food consumption) was 500 mg/kg/day, the NOAEL (rat [3]; systemic / in life observation / body weight / body weight + systemic / in life observation / food consumption / food consumption + systemic…) was 10 mg/kg/day and the LOAEL (rat [4]; [18]) was 221 mg/kg/day. For the same molecule, the NOAEL (rat [4]; [18]) was 32.1 mg/kg/day, the LEL (rat [4]; systemic / in life observation / clinical signs / palpable mass) was 42.9 mg/kg/day and the NEL (rat [4]; systemic / in life observation / clinical signs / palpable mass + systemic / in life observation / body weight / body weight + systemic / in…) was 0.4 mg/kg/day.

For `C=CCc1ccc(OC)c(OC)c1` [Methyleugenol], the LEL (rat [5]) was 10 mg/kg/day, the LOAEL (rat [5]) was 300 mg/kg/day and the NEL (rat [5]) was under 10 mg/kg/day. For the same molecule, the NOAEL (rat [5]) was 100 mg/kg/day, the LOAEL (mouse [6]; [19]) was 300 mg/kg/day and the NOAEL (mouse [6]; [19]) was 100 mg/kg/day. The LEL (mouse [6]; [20]) was 10 mg/kg/day, the NEL (mouse [6]; [20]) was under 10 mg/kg/day and the LEL (mouse [7]) was 37 mg/kg/day. The LOAEL (mouse [7]) was 37 mg/kg/day, the NEL (mouse [7]) was under 37 mg/kg/day and the NOAEL (mouse [7]) was under 37 mg/kg/day. For the same molecule, the LEL (rat [8]) was 37 mg/kg/day, the LOAEL (rat [8]) was 75 mg/kg/day and the NEL (rat [8]) was under 37 mg/kg/day. It also gave an NOAEL (rat [8]) of 37 mg/kg/day.

In the case of `ClC=CC[N+]12CN3CN(CN(C3)C1)C2.[Cl-]` [N-(3-Chloroallyl)hexaminium chloride], the LEL (rabbit [9]; [21]) is reported as 16 mg/kg/day, the LOAEL (rabbit [9]; [21]) is reported as 16 mg/kg/day and the NEL (rabbit [9]; [21]) is reported as 5.1 mg/kg/day. The NOAEL (rabbit [9]; [21]) was 5.1 mg/kg/day, the LEL (rabbit [9]; [22]) was 16 mg/kg/day and the LOAEL (rabbit [9]; [22]) was 16 mg/kg/day. The NEL (rabbit [9]; [22]) was 5.1 mg/kg/day, the NOAEL (rabbit [9]; [22]) was 5.1 mg/kg/day and the NEL (rat [10]; group: offspring, systemic / in life observation / body weight / offspring (pup) weight) was 75 mg/kg/day. It also gave an LEL (rat [10]; [23]) of 225 mg/kg/day, an LOAEL (rat [10]; [23]) of over 750 mg/kg/day and an NOAEL (rat [10]; [23]) of at least 750 mg/kg/day. For the same molecule, the LOAEL (rat [10]; [24]) was over 750 mg/kg/day, the NOAEL (rat [10]; [24]) was at least 750 mg/kg/day and the LEL (rat [10]; [25]) was 75 mg/kg/day. The NEL (rat [10]; [25]) was under 75 mg/kg/day, the LEL (rabbit [11]) was 50 mg/kg/day and the LOAEL (rabbit [11]) was over 1000 mg/kg/day. It also gave an NEL (rabbit [11]) of under 50 mg/kg/day and an NOAEL (rabbit [11]) of at least 1000 mg/kg/day.
